Source: PubChem BioAssay AID1259407 (Chemical Carcinogenesis Research Information System (CCRIS), 2018)
Calls of active or inactive are those of the source. How the calls were made is not given here.

Tested on: CCRIS mutagenicity, Ames/micronucleus/aberration tests
Assay: CCRIS mutagenicity studies
Settings: Test System: AMES SALMONELLA TYPHIMURIUM
[1] = Strain/Indicator: TA98, Metabolic Activation: NONE, Method: STANDARD PLATE
[2] = Strain/Indicator: TA100, Metabolic Activation: NONE, Method: STANDARD PLATE
[3] = Strain/Indicator: TA100, Metabolic Activation: RAT, LIVER, S-9, AROCLOR 1254, Method: STANDARD PLATE

Measured: mutagenic call

O=C[C@H](O)[C@@H](O)[C@H](O)CO
inactive: Strain/Indicator: TA97A, Metabolic Activation: NONE, Method: PREINCUBATION inactive; negative | Strain/Indicator: TA97A, Metabolic Activation: RAT, LIVER, S-9, AROCLOR 1254, Method: PREINCUBATION inactive; negative | Strain/Indicator: TA102, Metabolic Activation: NONE, Method: PREINCUBATION inactive; negative | Strain/Indicator: TA102, Metabolic Activation: RAT, LIVER, S-9, AROCLOR 1254, Method: PREINCUBATION inactive; negative

COC1=CC(=O)C(=O)C(C(C)(C)C)=C1
inactive: [1] inactive; negative | Strain/Indicator: TA98, Metabolic Activation: RAT, LIVER, S-9, AROCLOR 1254, Method: STANDARD PLATE inactive; negative | [2] inactive; negative | [3] inactive; negative

O=C1c2cc(O)cc(O)c2C(=O)c2c(O)cc(CO)cc21
active: Strain/Indicator: TA1537, Metabolic Activation: RAT, LIVER, S-9, PCB, Method: STANDARD PLATE active; positive | Strain/Indicator: TA1537, Metabolic Activation: RAT, LIVER, S-9, POLYCHLORINATED BIPHENYLS, Method: STANDARD PLATE active; positive

CC(C)CN(N)CC(C)C
inactive: Strain/Indicator: TA102, Metabolic Activation: NONE, Method: STANDARD PLATE inactive; negative | Strain/Indicator: TA102, Metabolic Activation: RAT, LIVER, S-9, AROCLOR 1254, Method: STANDARD PLATE inactive; negative
active: [2] active; positive | [3] active; positive

N#Cc1ccc(/C=C\c2ccc([N+](=O)[O-])cc2)cc1
inactive: Strain/Indicator: TA100 (NR), Metabolic Activation: NONE, Method: STANDARD PLATE inactive; negative | Strain/Indicator: TA100 (NR), Metabolic Activation: S-9, Method: STANDARD PLATE inactive; negative
active: Strain/Indicator: TA98 (NR), Metabolic Activation: NONE, Method: STANDARD PLATE active; positive | Strain/Indicator: TA98 (NR), Metabolic Activation: S-9, Method: STANDARD PLATE active; positive | [1] active; positive | Strain/Indicator: TA98, Metabolic Activation: S-9, Method: STANDARD PLATE active; positive | [2] active; positive | Strain/Indicator: TA100, Metabolic Activation: S-9, Method: STANDARD PLATE active; positive

O=[N+]([O-])c1ccc(Nc2ccc(O)cc2)c([N+](=O)[O-])c1
inactive: Strain/Indicator: TA97, Metabolic Activation: NONE, Method: PREINCUBATION inactive; negative | Strain/Indicator: TA97, Metabolic Activation: RAT, LIVER, S-9, AROCLOR 1254 (10%), Method: PREINCUBATION inactive; negative | Strain/Indicator: TA1535, Metabolic Activation: HAMSTER, LIVER, S-9, AROCLOR 1254 (10%), Method: PREINCUBATION inactive; negative | Strain/Indicator: TA1535, Metabolic Activation: NONE, Method: PREINCUBATION inactive; negative | Strain/Indicator: TA1535, Metabolic Activation: RAT, LIVER, S-9, AROCLOR 1254 (10%), Method: PREINCUBATION inactive; negative
active: Strain/Indicator: TA97, Metabolic Activation: HAMSTER, LIVER, S-9, AROCLOR 1254 (10%), Method: PREINCUBATION active; positive | Strain/Indicator: TA98, Metabolic Activation: HAMSTER, LIVER, S-9, AROCLOR 1254 (10%), Method: PREINCUBATION active; positive | Strain/Indicator: TA98, Metabolic Activation: NONE, Method: PREINCUBATION active; positive | Strain/Indicator: TA98, Metabolic Activation: RAT, LIVER, S-9, AROCLOR 1254 (10%), Method: PREINCUBATION active; positive | Strain/Indicator: TA100, Metabolic Activation: HAMSTER, LIVER, S-9, AROCLOR 1254 (10%), Method: PREINCUBATION active; positive | Strain/Indicator: TA100, Metabolic Activation: NONE, Method: PREINCUBATION active; positive | Strain/Indicator: TA100, Metabolic Activation: RAT, LIVER, S-9, AROCLOR 1254 (10%), Method: PREINCUBATION active; positive

OC1C=Cc2cc3c(cc2C1O)-c1cccc2cccc-3c12 (configuration not stated)
active: [3] active; positive

CC(=O)N(C)c1ccc(N=Nc2ccc(N(C)C(C)=O)cc2)cc1
inactive: Strain/Indicator: TA98, Metabolic Activation: RAT, LIVER, S-9, POLYCHLORINATED BIPHENYLS, Method: PREINCUBATION inactive; negative | Strain/Indicator: TA100, Metabolic Activation: RAT, LIVER, S-9, POLYCHLORINATED BIPHENYLS, Method: PREINCUBATION inactive; negative
